From patent US20190169134A1, “NOVEL CLASS OF QUINOLONE HETEROCYCLIC AROMATIC MOLECULES FOR CANCER TREATMENT” (RenoTarget Therapeutics, Inc., priority 2016, published 2019)
pIC50: −log10 of the molar value.

Tests used:
[1] = test system: HCC827 P and HCC827 TR cells; experiment: Reno647/Carboplatin combination, median effects (SRB, CalcuSyn); assay type: cell-based, human
Procedure: As described in Example 2.1. Two cell lines, HCC827-P and HCC827-TR (Tarceva-resistant HCC727 cells-an EGFRi resistant cell line with MET amplification) (Wang, Pursell et al. 2013) were used in the combination study. Exponentially growing HC[…] and HCC827-TR cells were seeded into 96-wells dishes at density of 3,000 cells per well. Twenty-four hours later, the cells were exposed concurrently to serial dilution of Reno647 or Carboplatin or Camptothecin alone or in combination at a ratio of 1:50 with Carboplatin or at ratio 1:1 with Camptothecin for 3 days. Reno647 were concurrently and sequentially with paclitaxel (Taxol) at ratio of 200:1 for 6 days. For sequential exposure, the cells were treated with Reno647 for 3 days, after removal of the drug containing medium, the cells were treated with Taxol for additional 3 days, or the cells were treated by Taxol first followed by the treatment with Reno 647. After incubation for 6 days, the cell growth was measured by SRB as described previously in Example 2.1 section, and the percentages of inhibition (1-T/C) % were calculated, and data were analyzed by a PC program, CalcuSyn, Biosoft (edited by T.-C. Chou, Memorial Sloan-Kettering Cancer Center, New York, and M. P. Hayball, at Cambridge, UK, 1996). The computer-calculated combination index (CI) was used to judge the outcomes of a combination: […] It has long been accepted that chemotherapy provided some benefit for patients with non-small-cell lung cancer (NSCLC) in terms of quality of life and symptomatology as well as modest improvements in survival. […] Cell growth was determined by SRB as described above.

[2] = target: T1, EGFR (G719S) (Homo sapiens, UniProt P00533, G719S); experiment: KinaseSeeker competition binding assay
T1 construct: made in house; host or cells: cell-free system (rabbit reticulocyte lysate)
Procedure: (§1) Compound Reno647 was profiled against the following panel of kinases at 2 μM using the KinaseSeeker™ assay: ABL1, AKT1, AKT2, AKT3, ALK, AURKA, AXL, BRAF, BTK, CDK2, CDK5, CDK7, CDK8, CSF1R, DDR1, EGFR del L747-P753 InsS, EGFR (L861Q), EGFR (G719S), EGFR, EGFR (L858R), EPHA2, EPHB2, FGFR3, FLT1/VEGFR1, FLT2/FGFR1, FLT3, FLT4/VEGFR3, GSK-3a, HER2, IGF1R, INSR, KIT, LIMK1, MET, MLK2/MAP3K10, RPS6KA5/MSK1, MUSK, p38a/MAPK12, PDGFRA, PDGFRB, PDK1, RET, RIPK2, RPS6KA1/RSK1, SRC, TEC, TESK1, TRKB, VEGFR2, and YES 1.
(§2) KinaseSeeker is a homogeneous competition binding assay where the displacement of an active site dependent probe by an inhibitor is measured by a change in luminescence signal (see FIG. 7). Luminescence readout translates into a highly sensitive and robust assay with low background and minimal interference from test compounds.
(§3) (Jester, Cox et al. 2010; Jester, Gaj et al. 2012): 10 mM stock of compound Reno647 was diluted in DMSO to a concentration of 50 μM. Prior to initiating a profiling campaign, the compound was evaluated for false positive against split-luciferase. The compound was then screened in duplicate against each of the kinases. For kinase assays, each Cfluc-Kinase was translated along with Fos-Nfluc using a cell-free system (rabbit reticulocyte lysate) at 30° C. for 90 min. A 24 μL aliquot of this lysate containing either 1 μL of DMSO (for no-inhibitor control) or compound solution in DMSO (2 LM final concentration) was incubated for 30 minutes at room temperature followed by 1 hour in the presence of a kinase specific probe. A 80 μL of luciferin assay reagent was added to each solution and luminescence was immediately measured on a luminometer.
(§4) The % Inhibition and % Activity Remaining were calculated using the following equations:
(§5) % inhibition=(ALUcontrol−ALUsample)×100
(§6) % activity=100−% inhibition.
(§7) The same assay design was used as described in example section 3.1.
(§8) 10 mM stock solutions of compound Reno647 was serially diluted in DMSO to make assay stocks. Prior to initiating IC50 determination, the test compound was evaluated for false positive against split-luciferase.
(§9) Reno647 was screened against 6 kinases (EGFR, EGFR del L747 P753 InsS, EGFR G719S, EGFR L858R, EGFR L861Q, RIPK2) at a minimum of 8 different concentrations in duplicate. For kinase assays, a 24 μL aliquot of lysate containing Cfluc-kinase and Fos-Nfluc was incubated for 30 minutes at room temperature with either 1 μL of DMSO (for no-inhibitor control) or compound solution in DMSO, followed by 1 hour incubation in the presence of a kinase specific probe. A 80 μL of luciferin assay reagent was added to each solution and luminescence was immediately measured on a luminometer.
(§10) % inhibition=(ALUcontrol−ALUsample)/ALcontrol×100
(§11) The % Activity was plotted against compound concentration and the IC50 was determined for each compound using an 8-point curve.

[3] = target: T2, EGFR del L747-P753 Ins S (Homo sapiens, UniProt P00533, DEL747-752/P753S); experiment: KinaseSeeker competition binding assay
T2 construct: made in house; host or cells: cell-free system (rabbit reticulocyte lysate)
Procedure: as §1, §2, §3, §4, §5, §6, §7, §8, §9, §10, §11

[4] = target: T3, EGFR (L858R) (Homo sapiens, UniProt P00533, L858R); experiment: KinaseSeeker competition binding assay
T3 construct: made in house; host or cells: cell-free system (rabbit reticulocyte lysate)
Procedure: as §1, §2, §3, §4, §5, §6, §7, §8, §9, §10, §11

[5] = target: T4, EGFR (Homo sapiens, UniProt P00533); experiment: KinaseSeeker competition binding assay
T4 construct: made in house; host or cells: cell-free system (rabbit reticulocyte lysate)
Procedure: as §1, §2, §3, §4, §5, §6, §7, §8, §9, §10, §11

[6] = target: T5, EGFR(L861Q) (Homo sapiens, UniProt P00533, L861Q); experiment: KinaseSeeker competition binding assay
T5 construct: made in house; host or cells: cell-free system (rabbit reticulocyte lysate)
Procedure: as §1, §2, §3, §4, §5, §6, §7, §8, §9, §10, §11

[7] = test system: HCC827 P cells; experiment: Western blot of EGFR downstream signaling; assay type: cell-based, human; details: 24 hrs
Procedure: The cells were washed with PBS, harvested and cellular proteins were extracted. […] Protein or phosphor-protein levels of pEGFRTyr1068, pEGFRTry845, pAktSer473, pStat3Tyr705, MEK1/2, pMEK1/2, p27, and pp70 S6 kinase 2 were determined by Western blot using specific antibodies. β-actin was used as loading control.
HCC827 P or other indicated cells at exponential growth phase were treated with indicated compounds for 24 hrs. The cells were washed with PBS, harvested and cellular proteins were extracted.

T2 sequence (P00533 with tags, fused parts or gaps DEL747-752/P753S): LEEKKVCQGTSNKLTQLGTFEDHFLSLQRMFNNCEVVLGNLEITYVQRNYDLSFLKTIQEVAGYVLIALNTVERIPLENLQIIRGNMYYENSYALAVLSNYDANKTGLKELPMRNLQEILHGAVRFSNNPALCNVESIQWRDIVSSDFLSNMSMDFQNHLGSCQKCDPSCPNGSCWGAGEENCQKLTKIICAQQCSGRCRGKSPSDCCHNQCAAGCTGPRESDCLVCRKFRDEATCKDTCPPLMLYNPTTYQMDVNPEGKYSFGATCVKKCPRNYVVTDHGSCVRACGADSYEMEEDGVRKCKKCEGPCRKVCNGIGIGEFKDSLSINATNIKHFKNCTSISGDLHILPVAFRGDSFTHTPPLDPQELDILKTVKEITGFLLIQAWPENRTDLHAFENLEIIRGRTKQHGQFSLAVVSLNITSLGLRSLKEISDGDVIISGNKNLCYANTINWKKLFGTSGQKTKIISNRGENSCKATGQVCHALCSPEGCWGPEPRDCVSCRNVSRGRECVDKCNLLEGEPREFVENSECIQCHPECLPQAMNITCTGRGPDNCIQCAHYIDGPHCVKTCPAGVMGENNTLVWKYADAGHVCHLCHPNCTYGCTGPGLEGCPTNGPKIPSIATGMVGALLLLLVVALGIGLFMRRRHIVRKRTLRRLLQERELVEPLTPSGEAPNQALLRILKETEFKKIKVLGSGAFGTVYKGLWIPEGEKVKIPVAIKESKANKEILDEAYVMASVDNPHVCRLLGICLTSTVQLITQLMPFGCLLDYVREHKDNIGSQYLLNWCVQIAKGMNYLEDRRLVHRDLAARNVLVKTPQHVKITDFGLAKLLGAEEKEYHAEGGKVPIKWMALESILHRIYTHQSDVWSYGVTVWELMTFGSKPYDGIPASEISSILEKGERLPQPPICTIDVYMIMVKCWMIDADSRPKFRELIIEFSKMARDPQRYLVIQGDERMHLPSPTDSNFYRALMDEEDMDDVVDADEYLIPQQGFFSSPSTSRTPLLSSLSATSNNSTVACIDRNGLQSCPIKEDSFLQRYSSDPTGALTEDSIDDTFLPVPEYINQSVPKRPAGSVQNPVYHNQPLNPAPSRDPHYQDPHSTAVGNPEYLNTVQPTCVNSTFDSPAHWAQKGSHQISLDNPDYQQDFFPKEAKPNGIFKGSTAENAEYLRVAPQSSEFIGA
T1 sequence (P00533 25-1210 G719S): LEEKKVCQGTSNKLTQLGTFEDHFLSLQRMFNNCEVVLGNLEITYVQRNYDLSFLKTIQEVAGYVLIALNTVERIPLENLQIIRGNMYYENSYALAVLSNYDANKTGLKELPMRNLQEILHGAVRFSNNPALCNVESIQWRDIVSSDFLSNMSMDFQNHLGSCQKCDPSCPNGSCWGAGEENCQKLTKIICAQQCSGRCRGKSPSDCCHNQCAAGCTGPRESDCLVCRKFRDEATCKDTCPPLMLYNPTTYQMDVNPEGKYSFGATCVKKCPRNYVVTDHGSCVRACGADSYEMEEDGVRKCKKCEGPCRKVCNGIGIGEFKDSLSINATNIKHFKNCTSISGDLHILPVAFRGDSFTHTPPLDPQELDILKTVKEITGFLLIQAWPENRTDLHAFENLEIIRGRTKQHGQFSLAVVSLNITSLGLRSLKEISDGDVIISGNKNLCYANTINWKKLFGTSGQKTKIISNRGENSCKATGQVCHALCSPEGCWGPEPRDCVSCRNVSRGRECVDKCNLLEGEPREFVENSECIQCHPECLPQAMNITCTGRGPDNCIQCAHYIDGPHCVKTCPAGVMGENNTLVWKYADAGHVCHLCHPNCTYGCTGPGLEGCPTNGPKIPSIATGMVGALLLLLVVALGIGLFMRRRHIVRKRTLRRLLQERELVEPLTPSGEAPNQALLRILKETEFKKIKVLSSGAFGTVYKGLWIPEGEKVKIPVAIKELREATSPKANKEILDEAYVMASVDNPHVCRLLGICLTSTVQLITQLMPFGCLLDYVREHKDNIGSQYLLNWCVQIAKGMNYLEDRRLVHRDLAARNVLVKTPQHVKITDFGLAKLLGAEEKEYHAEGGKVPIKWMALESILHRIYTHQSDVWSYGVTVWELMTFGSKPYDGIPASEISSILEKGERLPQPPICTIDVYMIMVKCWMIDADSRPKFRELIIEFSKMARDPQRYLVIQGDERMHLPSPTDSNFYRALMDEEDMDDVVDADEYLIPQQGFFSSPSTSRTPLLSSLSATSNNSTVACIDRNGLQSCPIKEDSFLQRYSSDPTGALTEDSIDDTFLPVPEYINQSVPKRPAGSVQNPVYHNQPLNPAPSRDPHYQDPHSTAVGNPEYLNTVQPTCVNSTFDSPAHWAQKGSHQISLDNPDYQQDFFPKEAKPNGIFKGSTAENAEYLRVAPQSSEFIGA
T3 sequence (P00533 25-1210 L858R): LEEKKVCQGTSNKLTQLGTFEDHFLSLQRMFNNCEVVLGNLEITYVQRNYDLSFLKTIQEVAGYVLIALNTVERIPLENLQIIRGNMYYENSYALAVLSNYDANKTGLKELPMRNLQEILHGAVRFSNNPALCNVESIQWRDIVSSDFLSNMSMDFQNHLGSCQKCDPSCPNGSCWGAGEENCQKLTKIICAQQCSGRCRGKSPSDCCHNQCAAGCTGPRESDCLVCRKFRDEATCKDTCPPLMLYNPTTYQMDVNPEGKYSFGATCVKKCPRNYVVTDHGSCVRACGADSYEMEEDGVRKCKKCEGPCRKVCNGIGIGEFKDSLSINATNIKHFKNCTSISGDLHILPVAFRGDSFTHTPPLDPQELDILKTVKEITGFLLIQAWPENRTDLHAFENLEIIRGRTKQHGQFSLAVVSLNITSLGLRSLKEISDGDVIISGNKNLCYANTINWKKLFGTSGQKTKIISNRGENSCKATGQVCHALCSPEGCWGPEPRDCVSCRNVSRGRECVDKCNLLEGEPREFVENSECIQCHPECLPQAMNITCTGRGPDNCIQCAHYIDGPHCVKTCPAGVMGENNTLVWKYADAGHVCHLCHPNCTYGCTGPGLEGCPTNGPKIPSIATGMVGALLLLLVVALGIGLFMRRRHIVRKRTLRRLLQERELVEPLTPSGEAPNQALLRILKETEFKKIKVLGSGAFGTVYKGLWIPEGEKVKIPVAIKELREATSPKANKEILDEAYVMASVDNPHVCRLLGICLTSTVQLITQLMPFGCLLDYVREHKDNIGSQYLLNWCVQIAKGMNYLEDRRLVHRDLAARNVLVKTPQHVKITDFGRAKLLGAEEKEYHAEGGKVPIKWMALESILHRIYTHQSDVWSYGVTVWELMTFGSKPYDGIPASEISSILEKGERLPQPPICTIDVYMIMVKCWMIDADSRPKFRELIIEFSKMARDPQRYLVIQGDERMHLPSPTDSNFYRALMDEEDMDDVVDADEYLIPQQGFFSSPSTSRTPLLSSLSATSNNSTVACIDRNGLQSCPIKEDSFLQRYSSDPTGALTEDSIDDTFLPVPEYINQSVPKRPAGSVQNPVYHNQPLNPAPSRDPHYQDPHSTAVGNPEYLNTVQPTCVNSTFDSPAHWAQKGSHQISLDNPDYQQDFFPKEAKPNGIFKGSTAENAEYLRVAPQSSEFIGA
T5 sequence (P00533 25-1210 L861Q): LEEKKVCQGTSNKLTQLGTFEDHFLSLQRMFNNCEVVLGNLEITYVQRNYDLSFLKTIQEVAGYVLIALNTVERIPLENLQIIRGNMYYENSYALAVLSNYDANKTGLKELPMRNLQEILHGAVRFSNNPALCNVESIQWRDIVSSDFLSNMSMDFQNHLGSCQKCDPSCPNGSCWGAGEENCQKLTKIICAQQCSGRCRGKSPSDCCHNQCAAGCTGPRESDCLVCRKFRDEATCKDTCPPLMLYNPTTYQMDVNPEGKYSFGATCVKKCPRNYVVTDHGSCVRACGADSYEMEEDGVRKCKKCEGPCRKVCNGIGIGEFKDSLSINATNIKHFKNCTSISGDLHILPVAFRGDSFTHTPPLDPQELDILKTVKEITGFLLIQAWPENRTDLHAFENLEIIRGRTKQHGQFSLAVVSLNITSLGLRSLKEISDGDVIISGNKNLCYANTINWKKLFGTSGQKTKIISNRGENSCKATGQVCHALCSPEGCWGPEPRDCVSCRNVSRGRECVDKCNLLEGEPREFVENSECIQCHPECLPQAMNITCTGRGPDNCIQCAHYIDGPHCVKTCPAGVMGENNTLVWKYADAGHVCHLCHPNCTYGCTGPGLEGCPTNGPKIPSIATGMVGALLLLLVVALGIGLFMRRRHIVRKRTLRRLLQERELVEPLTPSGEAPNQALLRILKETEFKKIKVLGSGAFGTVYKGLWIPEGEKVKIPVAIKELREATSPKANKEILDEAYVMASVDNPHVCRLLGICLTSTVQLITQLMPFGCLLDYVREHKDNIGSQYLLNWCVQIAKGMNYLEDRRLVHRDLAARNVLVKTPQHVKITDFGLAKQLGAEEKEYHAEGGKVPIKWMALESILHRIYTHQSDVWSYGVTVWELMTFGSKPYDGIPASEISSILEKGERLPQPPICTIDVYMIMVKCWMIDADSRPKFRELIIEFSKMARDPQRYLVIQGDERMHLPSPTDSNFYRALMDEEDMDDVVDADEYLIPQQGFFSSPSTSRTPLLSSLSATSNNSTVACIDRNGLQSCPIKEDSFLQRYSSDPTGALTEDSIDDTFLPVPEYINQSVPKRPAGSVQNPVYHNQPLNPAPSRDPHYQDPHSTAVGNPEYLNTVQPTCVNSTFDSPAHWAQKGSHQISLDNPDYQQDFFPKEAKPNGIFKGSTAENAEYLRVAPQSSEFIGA

remaining binding at 2 µM ([2]; 2 μM, EGFR (G719S)): 30.2%
pIC50 ([2]; 8-point curve, duplicate): 6.01
remaining binding at 2 µM ([3]; 2 μM, EGFR del L747-P753 Ins S): 14.8%
pIC50 ([3]; 8-point curve, duplicate, read-out: IC50 EGFR del L747-P753 InsS): 7.11
remaining binding at 2 µM ([4]; 2 μM, EGFR (L858R)): 7.2%
pIC50 ([4]; 8-point curve, duplicate): 6.80
remaining binding at 2 µM ([5]; 2 μM, wild-type EGFR): 66.7%
pIC50 ([5]; 8-point curve, duplicate, read-out: IC50 wild-type of EGFR): 4.60
remaining binding at 2 µM ([6]; 2 μM, EGFR(L861Q)): 20.7%
pIC50 ([6]; 8-point curve, duplicate): 6.24
Structure (SMILES): C#Cc1cccc(Nc2ncnc3cc(OCCOC)c(NC(=O)c4ccc(F)c([N+](=O)[O-])c4)cc23)c1 [Reno647, 4-Fluoro-N-[4-(3-ethynyl-phenylamino)-7-(2-methoxy-ethoxy)-quinazolin-6-yl]-3-nitro-benzamide]
dose reduction in combination ([1]; Reno647:Carboplatin 1:50): > 10 fold
median effects, two drugs combined ([1]; Reno647:Carboplatin 1:50, concurrent, cell line not stated): 0.067 µM
median effects, drug alone ([1]; single agent, cell line not stated): 0.697 µM
Phospho-Akt level [7]: significantly reduced
level of pEGFRTyr845 [7]: significantly decreased
level of pEGFRTyr1068 [7]: significantly decreased
level of pERK1/2 (Ras/Raf/MEK pathway) [7]: significant decrease
p27 level [7]: induction
pp-70-6S activity (p70-S6 activation) [7]: significant decreases
total MEK1/2 protein level [7]: no changes
